This is an account of results in publication PMC5570892, “Indole-based perenosins as highly potent HCl transporters and potential anti-cancer agents” (Scientific Reports, 2017).

Data set [1] is described as follows: pKa by UV spectrophotometric titration in aqueous solution. It is filed as physicochemical. As to conditions: for solubility in the pKa titration solvent system: hexafluorophosphate buffered DMSO:water 50:50; for pK a (aq): apparent pKa, hexafluorophosphate buffered DMSO:water 50:50, 25 °C. From the text: (§1) The pK a at which protonation of the imine (N2, see Fig. 3) occurs gives an indication of the optimum pH for the binding of chloride anions. This is an important consideration in anti-cancer drug development as the external pH environment of cancer cells is mildly acidic (pH 6.7)[53] compared to that of healthy cells (pH 7.2–7.5)[54]. This can be exploited to selectively target cancer cells and potentially reduce the cytotoxic effects of perenosins when used as therapeutics for anti-cancer treatment. The apparent pK a values, shown in Table 1, for compounds 1d and 2–8 were determined both in aqueous solution (pK a (aq)) and in the presence of a 1-palmitoyl-2-oleoyl-sn-glycero-3-phosphocholine (POPC) lipid bilayer membrane (pK a (mem)). UV spectrophotometric titrations were conducted by varying the pH condition from neutral to acidic with the titration of either HPF6 or HCl.
The apparent pK a values were derived from nonlinear curve fitting of the absorbance plotted against the pH; global fitting of both wavelengths corresponding to the neutral and protonated species were performed whenever feasible, see Supplementary Information for details.
S6.1 pKa Studies in Aqueous Solution pKa values for compounds 1d, 2, 4, 5, 7 and 8 were determined experimentally in aqueous solution […]
in absorbance bet ween the UV-Vis spectra of the protonated and the neutral species. The titration solution was made up with a hexafluorophosphate buffered (100 mM) DMSO:water 50:50 solution (4990 μL) and a transporter solution (10 μL, 25 mM), and the pH of this was recorded. The UV-Vis spectra were recorded on an Agilent Cary 100 UV-Vis spectrophotometer at 25 °C with baseline correction, using standard 10 mm quartz glass cells. A baseline absorbance was measured on a hexafluorophosphate buffered (100 mM) DMSO:water 50:50 solution, and then the absorbance of the titration solution was measured. The pH of the solution was decreased stepwise by adding small aliquots of hexafluorophosphoric acid ([…]). After each pH decrease an absorbance measurement was taken. The absorbance at a certain wavelength (noted for each compound below) was plotted against the pH and then fitted using a dose response curve in OriginPro 9.1, where the point of inflection corresponds to the apparent pKa in aqueous solution.
Figure S38. Absorbance spectra taken over the course of a pH-spectrophotometric titration of 1d (25 mM) in a hexafluorophosphate buffered (100 mM) DMSO:water 50:50 mixture. Inset: Abs vs. pH with dose response curve fit and the point of inflection corresponding to the pKa value.
(§2) (1 picture or pasted object on this page, not shown here)

A short description of data set [2]: pKa by UV spectrophotometric titration in POPC vesicles. The format is physicochemical. As to conditions: apparent pKa in presence of POPC lipid bilayer, NaCl 500 mM, phosphate 5 mM.
Excerpt: as §1
The apparent pK a values were derived from nonlinear curve fitting of the absorbance plotted against the pH; global fitting of both wavelengths corresponding to the neutral and protonated species were performed whenever feasible, see Supplementary Information for details. […]
All spectra obtained have the increasing and decreasing peaks marked with an arrow.
Isosbestic points were not observed in the titrations due to break down of the imine in acidic conditions. The breakdown product is shown, for all compounds, as the increasing absorbance peak […]
S6.2 pKa Studies in Vesicles pKa values for compounds 1d, 2, 4, 5, 7 and 8 were determined experimentally in vesicles through a […]
absorbance between the UV -Vis spectra of the protonated and the neutral species. Unilamellar vesicles were prepared using previously reported literature procedures 7-9. A lipid film of POPC (1 - palmitoyl-2-oleoyl-sn-glycero-3-phosphocholine) was prepared from a chloroform solution under reduced pressure and then dried under vacuum for 4 or more hours. The lipid film was rehydrated by vortexing with a solution of phosphate buffered (5 mM) sodium chloride (500 mM). The lipid suspension was then subjected to 9 freeze-thaw cycles and left to rest at room temperature for 30 minutes. After this, the suspension was extruded 25 times through a 400 nm polycarbonate membrane resulting in unilamellar vesicles of a mean diameter of 400 nm. The titration solution was made up to a standard volume (2500 μL, 1 mM) with the lipid (615 μL), phosphate buffered (5 mM) sodium chloride (500 mM) solution ([…]) and a transporter solution (10 μL, 25 mM), and the pH of this was noted . The UV-Vis spectra were recorded on an Agilent Cary 100 UV-Vis spectrophotometer at 25 °C with baseline correction, using standard 10 mm quartz glass cells. A baseline absorbance was measured using a solution of lipid, phosphate buffered (5 mM) sodium chloride (500 mM) and DMSO, and then the absorbance of the titration solution was measured. The pH of the solution was decreased stepwise by adding small aliquots of hydrochloric acid (0.1 mM).
as §2
After each pH decrease an absorbance measurement was taken. The absorbance at a certain wavelength (shown for each compound below) was plotted against the pH and then fitted using a dose response curve in OriginPro 9.1, where the point of inflection corresponds to the apparent pKa […]
Figure S44. Absorbance spectra taken over the course of a pH-spectrophotometric titration of 1d (25 mM) in a sodium chloride (500 mM) phosphate buffered (5 mM) lipid solution (1 mM). Inset: Abs vs. pH with dose response curve fit and the point of inflection corresponding to the p Ka value.
Figure S45. Absorbance spectra taken over the course of a pH -spectrophotometric titration of 2 (25 […]
pH with dose response curve fit with the point o f inflection corresponding to the p Ka value. […]

Molecules are shown by their SMILES.

For the compound `CCCCCc1cc2cc(C(F)(F)F)cc(/N=C/c3[nH]c(C)cc3C)c2[nH]1` [Perenosin 3], the “solubility in the pKa titration solvent system” value in data set [1] is reported as “precipitation was observed”.

Regarding `CCCCCc1cc2cc(C)cc(/N=C/c3[nH]c4ccccc4c3C)c2[nH]1` [Perenosin 8], the “pK a (mem)” value in data set [2] is 5.62. Further, in data set [1], the “pK a (aq)” value is given as 6.28. The matching figures for `CCCCCc1cc2cc(C)cc(/N=C/c3[nH]c(C)cc3C)c2[nH]1` [Perenosin 2]: 5.85 and 6.08. In the case of `CCCc1cc2cc(C)cc(/N=C/c3[nH]c(C)cc3C)c2[nH]1` [Perenosin 4], the “pK a (mem)” value in data set [2] is given as 6.12. Besides, the “pK a (aq)” value in data set [1] turned out to be 6.78. The corresponding values for `CCCCCc1c(C)[nH]c(/C=N/c2cc(C)cc3cc[nH]c23)c1C` [Perenosin 5] are 5.81 and 6.44.

For the compound `CCCCCc1cc(/N=C/c2[nH]c3ccccc3c2C)c2[nH]ccc2c1` [Perenosin 7], in data set [2], the “pK a (mem)” value stood at 5.07. Also, in data set [1], the “pK a (aq)” value amounted to 5.51. The corresponding values for `CCCCCc1cc(/N=C/c2[nH]c(C)cc2C)c2[nH]ccc2c1` [Perenosin 1d] are 5.42 and 6.35.

`CCCCCc1cc2cc(C)cc(/N=C/c3[nH]c(C)c(CCCCC)c3C)c2[nH]1` [Perenosin 6]: in data set [1], the “solubility in the pKa titration solvent system” value is listed as “precipitation was observed”.
